Measured values from ChEMBL document CHEMBL5604062, “ASAP - ZIKV NS2B-NS3 protease fluorescence dose response” (2024).
Values joined by “and” are separate entries in the source; they are usually repeats but may differ in a detail not shown here. Equal values may be shown once.

Target: Nonstructural protein 3 (Zika virus, UniProt A0A024AXB9)
Experiment: Functional biochemical assay to identify treatments for viral infectious disease that targets Zika NS2B-NS3 protease. Utilizing a direct enzyme activity measurement method, reading the fluorescence intensity is used to characterize the relative potency of inhibitors as IC50.
Set-up: species or system PRVABC59

Nonstructural protein 3, sequence (A0A024AXB9 whole entry): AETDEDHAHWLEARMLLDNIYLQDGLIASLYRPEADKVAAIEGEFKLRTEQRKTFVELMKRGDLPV

CC(C)O[C@]1(C)C(=O)Nc2cc(F)cc(C(=O)Nc3ccc4c(c3)CNC4)c21
IC50: 1.26 µM

CC(C)(CNCc1c[nH]c2ccccc12)c1cccnc1
IC50: > 99.5 µM

NC(=O)c1cn(C[C@H]2CCCN2c2ccnc3ccccc23)nn1
IC50: > 99.5 µM

Cn1cc2c(C(=O)Nc3ccc4c(c3)CNC4)cc(Cl)cc2n1
IC50: 0.159 µM

C[C@@H]1CNC[C@H]1c1ccc(NC(=O)c2ccc3c(c2)SCCN3)cc1
IC50: > 99.5 µM

NCc1cccc(-c2csc3cc(C(=O)Nc4ccc5c(c4)CNC5)ccc23)c1
IC50: 1.71 µM and 1.41 µM

O=C(Nc1cc(Cl)cc(C(=O)Nc2cccc([C@H]3CNCCO3)c2)c1)OCc1ccccc1
IC50: > 99.5 µM

Cc1c(C(=O)Nc2cc(CCCN)ccc2F)cc(C2CC2)n1C
IC50: 69.2 µM

NCc1cccc(NC(=O)[C@@H](NC(=O)OCc2ccccc2)c2ccc(OCc3ncccn3)cc2)c1
IC50: 47.9 µM

Cc1cc(CN)cc(NC(=O)c2cc(C3CC3)n(C)c2C)c1
IC50: > 99.5 µM

O=C(Nc1cccc(-c2nnn[nH]2)c1)c1ccc(-c2cccnc2)s1
IC50: > 99.5 µM

NCc1cccc(NC(=O)c2cc(NC(=O)OCc3ccccc3)cc3c2OCCO3)c1
IC50: 89.6 µM

CCCCCN(C)C(=O)c1cc(Cl)ccc1NS(=O)(=O)c1ccc(Oc2ccccc2Cl)cc1
IC50: > 99.5 µM

Cc1c(NC(=O)OCc2ccccc2)cc(C(F)(F)F)cc1C(=O)Nc1cccc(CN)c1
IC50: 60.4 µM

C=CC[C@H]1NCc2cc(N[C@H](C(=O)NCC(F)F)c3cc(Cl)cc(C4CC4)c3)ccc21
IC50: 0.21 µM

O=C(Nc1cc(Cl)cc([C@H](Nc2cccc(-c3nn[nH]n3)c2)C(=O)NC[C@H]2CCCO2)c1)OCc1ccccc1
IC50: > 99.5 µM

NCc1cccc(NC(=O)[C@@H](NC(=O)OCc2ccccc2)C2CCN(S(=O)(=O)C3CCCC3)CC2)c1
IC50: > 99.5 µM

O=C(Nc1ccc2c(c1)CNC2)c1cc(F)cc2[nH]c(CCc3cccnc3)nc12
IC50: 0.131 µM

NCc1cccc(NC(=O)Cc2cc(Cl)cc(NC(=O)OCc3ccccc3)c2)c1
IC50: 46 µM

NCc1cccc(NC(=O)[C@@H](NS(=O)(=O)c2ccccc2F)c2ccc(OCc3ccccc3)cc2)c1
IC50: 99 µM

CC(C)N1CCc2nc(NC(=O)[C@H](NC(=O)OCc3ccccc3)c3ccc(OCc4ccccc4)cc3)sc2C1
IC50: > 99.5 µM

NCc1cccc(NC(=O)[C@H](NC(=O)OCc2ccccc2)c2ccc(Br)cc2F)c1
IC50: 72 µM

O=C(Nc1ccc2c(c1)CNC2)[C@H]1C[C@@H]1c1ccccc1
IC50: > 25 µM

NC(=O)N1CCc2ccc(NC(=O)c3cccc4c3CC(=O)N4)cc21
IC50: > 25 µM

O=C(Nc1ccc(C2CNC2)cc1)c1cc(Cl)cc2[nH]ncc12
IC50: 1.22 µM

NCc1cccc(NC(=O)C[C@H](NC(=O)OCc2ccccc2)c2ccc(OC(F)(F)F)cc2)c1
IC50: 33.9 µM and 39.5 µM

O=C(c1cc(Cl)ccc1NS(=O)(=O)c1ccc(Oc2ccccc2Cl)cc1)N1CCNCC1
IC50: > 99.5 µM

O=C(Nc1ccc2c(c1)CNC2)c1ccccn1
IC50: 57.3 µM

NCc1cccc(NC(=O)[C@@H](NC(=O)OCc2ccccc2)c2ccc(-c3cccc4c3CCO4)cc2)c1
IC50: 14 µM

O=C(Nc1cc(Cl)cc(C(=O)Nc2ccc(CC3CCNCC3)cc2)c1)OCc1ccccc1
IC50: 5.23 µM

CC(C)(C)OC(=O)NCc1ccc(I)c(NC(=O)c2cc(Cl)cc(NC(=O)OCc3ccccc3)c2)c1
IC50: > 99.5 µM

NC1(c2cccc(NC(=O)[C@@H](NC(=O)OCc3ccccc3)c3ccc(OCc4ccccc4)cc3)c2)CCC1
IC50: > 99.5 µM

N[C@H]1CCc2ccc(NC(=O)c3cc(Cl)cc(NC(=O)OCc4ccccc4)c3)cc21
IC50: 8.42 µM

NCc1cccc(NC(=O)c2cc(Cl)cc(Cl)c2O)c1
IC50: > 99.5 µM

CCCC[C@H](NC(C)=O)C(=O)N[C@H](C(=O)NCc1ccc(CN)cc1)c1ccccc1
IC50: > 99.5 µM

c1cc(-c2cc(CN3CCC(c4cscn4)CC3)n[nH]2)ccn1
IC50: > 99.5 µM

CCOc1cccc(-c2ccc(S(=O)(=O)Nc3ccc(Cl)cc3C(=O)O)cc2C)c1
IC50: 11.1 µM

NCc1cccc(NC(=O)[C@H](NC(=O)COc2ccccc2)c2ccc(OCc3ccccc3)cc2)c1
IC50: 26.5 µM

O=C(Nc1cccc(N2CCNCC2)c1)c1cccc2ncccc12
IC50: > 99.5 µM

Cc1oc(C(=O)Nc2cccc(CN)c2)cc1COc1ccccc1
IC50: > 99.5 µM

O=C(O)c1cc(Cl)ccc1CNS(=O)(=O)c1ccc(Oc2ccccc2Cl)cc1
IC50: > 99.5 µM

O=C(O)c1cc2cc(-c3cc(Cl)c4[nH]c(=O)oc4c3)ccc2[nH]1
IC50: 90.2 µM

O=C(Nc1ccc2c(c1)CNC2)c1cccc2c1[C@]1(CCN(C(=O)OCc3ccccc3)C1)C(=O)N2
IC50: 0.243 µM

NCc1cccc(CNC(=O)[C@@H](NC(=O)OCc2ccccc2)c2ccc(OCc3ccccc3)cc2)n1
IC50: 65.6 µM

O=C(Nc1ccc2c(c1)[C@H]1CC[C@H]2N1)c1cc(Cl)cc2[nH]ncc12
IC50: 5.65 µM

O=C1OCc2ccc(NC(=O)[C@H]3CNCc4[nH]ncc43)cc21
IC50: > 25 µM

O=C(/C=C/c1ccccc1)C(=O)N1CCN(CCc2ccccc2)CC1
IC50: 44.9 µM

O=C(Nc1cc([C@H]2CCOC2)ccn1)c1cc(F)cc2[nH]ccc12
IC50: > 25 µM

CCn1cc(C(=O)NCc2ccccc2)nc(N2CC[C@@H](CO)C2)c1=O
IC50: > 99.5 µM

O=C(O)[C@H]1C[C@H](n2ccc(Cc3c[nH]c4ccc(Cl)cc34)n2)C1
IC50: > 99.5 µM

Brc1cnc(Sc2ncc[nH]2)nc1
IC50: > 99.5 µM

O=S(=O)(Nc1cccc(-c2nnn[nH]2)c1)c1cc(Cl)cc(-c2ccccc2)c1
IC50: > 99.5 µM

Cc1nn(C)cc1S(=O)(=O)N[C@@H](C(=O)Nc1cccc(CN)c1)c1ccc(OCc2ccccc2)cc1
IC50: > 99.5 µM

O=C(Nc1cc(Br)c2c(c1)CNC2)c1cc(F)cc2[nH]ncc12
IC50: 0.027 µM and 0.015 µM

O=c1ccn(Cc2cc(=O)n3ccccc3n2)c2ccsc12
IC50: > 99.5 µM

N#Cc1cccc(N2CCN(Cc3c[nH]c4ccccc34)CC2)c1
IC50: 85.6 µM

NS(=O)(=O)c1cccc(N2CCN(Cc3c[nH]c4ccccc34)CC2)c1
IC50: > 99.5 µM

Cc1cc(C(=O)Nc2cccc(CN)c2)c2sc(N)nc2n1
IC50: > 99.5 µM

O=C(O)c1cc(F)c(F)cc1NS(=O)(=O)c1ccc(Oc2ccccc2Cl)cc1
IC50: 31.9 µM

COc1ccc(-c2cccc([C@@H](NC(=O)OCc3ccccc3)C(=O)Nc3cccc(CN)c3)c2)cn1
IC50: 35.3 µM

O=C(Nc1cc(Cl)cc(-c2cccc3c(C(=O)O)cccc23)c1)OCc1ccccc1
IC50: 23.1 µM

c1ccc2[nH]c(CC3CCN(Cc4nccs4)CC3)nc2c1
IC50: > 99.5 µM

CCc1ccc(S(=O)(=O)N[C@@H](C(=O)Nc2cccc(CN)c2)c2ccc(OCc3ccccc3)cc2)cc1
IC50: 52.3 µM

CCn1cc(-c2cccc(-n3cccn3)c2)nc(N2CC[C@@H](CO)C2)c1=O
IC50: > 99.5 µM

Cc1ccc(-c2nnn[nH]2)cc1NC(=O)c1cc(Cl)cc(NC(=O)OCc2ccccc2)c1
IC50: 58.7 µM

O=C(NCc1nnn[nH]1)c1cc(Cl)ccc1NS(=O)(=O)c1ccc(Oc2ccccc2Cl)cc1
IC50: > 99.5 µM

O=C1Cc2c(cccc2C(=O)Nc2ccc(Cl)c(CO)n2)N1
IC50: > 25 µM

CCn1cc(-c2cnn(C)n2)nc(N2CC[C@@H](CO)C2)c1=O
IC50: > 99.5 µM

COC(=O)c1csc2cc(C(=O)N3CCCc4cc(CCN)ccc43)[nH]c12
IC50: > 99.5 µM

O=C(Nc1cc(-c2cccnc2)ccn1)c1cc2n(n1)CCC2
IC50: > 25 µM

CCCNC(=O)[C@H](Nc1cccc(-c2nn[nH]n2)c1)c1cc(Cl)cc(NC(=O)OCc2ccccc2)c1
IC50: 48.5 µM

O=C(NCc1cnn(CCO)c1)c1cccc2c1NC(=O)[C@]1(CCCN1)C2
IC50: > 99.5 µM

CCn1cc(-c2ccc(OC)c(C)c2)nc(N2CC[C@@H](CO)C2)c1=O
IC50: > 99.5 µM

NCc1cccc(NC(=O)c2c(F)c(Cl)cc(NC(=O)OCc3ccccc3)c2F)c1
IC50: 55.6 µM

O=C(O)c1cc2cc(-c3cc(Cl)cc(C4CC4)c3)ccc2[nH]1
IC50: 32.9 µM

Cn1c(=O)[nH]c2c(C(=O)Nc3ccc4c(c3)CNC4)cc(Br)cc21
IC50: 0.034 µM and 0.022 µM

CC(C)[C@H](NC(=O)c1cc(Cl)cc(NC(=O)OCc2ccccc2)c1)c1nn[nH]n1
IC50: > 99.5 µM

CC(C)c1nc2c(C(=O)Nc3ccc4c(c3)CNC4)cc(Br)cc2[nH]1
IC50: 0.316 µM

O=C(Nc1ccc2c(c1)CNC2)c1ccn[nH]1
IC50: 62.1 µM

C#C[C@H](Nc1cccc(-c2nn[nH]n2)c1)c1cc(Cl)cc(NC(=O)OCc2ccccc2)c1
IC50: 22.9 µM

COC(=O)[C@H](NC(=O)OC(C)(C)C)c1ccc(-c2csc(C)c2)cc1
IC50: > 99.5 µM

CCn1ccc2cc(CN3CCC(c4c[nH]c5cccnc45)CC3)ccc21
IC50: > 99.5 µM

CCCn1cc2c(C(=O)Nc3ccc4c(c3)CNC4)cc(Cl)cc2n1
IC50: 0.067 µM and 0.036 µM

N=C(N)Nc1ccc(OC(=O)Nc2ccccc2)cc1
IC50: > 100 µM

NCc1cccc(NC(=O)[C@H](NC(=O)OCc2ccccc2)c2ccc(Br)c(Cl)c2)c1
IC50: 10.9 µM and 8.65 µM and 8.23 µM and 9.33 µM

NCc1cccc(NC(=O)c2cc(NC(=O)OCc3ccccc3)cc(C(F)(F)F)c2)c1
IC50: 14.6 µM

NCc1cccc(NC(=O)C[C@H](NC(=O)OCc2ccccc2)c2ccc(Cl)c(F)c2)c1
IC50: 71.4 µM

N#CC1(c2ccccc2)CCN(Cc2c[nH]c3ccccc23)CC1
IC50: > 99.5 µM

CCCCCC(=O)N[C@H](C(=O)N1CCC(CN)CC1)c1ccc(OCc2ccccc2)cc1
IC50: > 99.5 µM

Cc1c(C(=O)Nc2cc(C(=O)N[C@H]3CNC(=O)C3)ccn2)cc(C2CC2)n1C
IC50: > 25 µM

NCc1cccc(NC(=O)[C@@H]2C[C@@H]3CC[C@H]2N3C(=O)OCc2ccccc2)c1
IC50: > 99.5 µM

N#Cc1cc(-c2ccc3[nH]c(C(=O)O)cc3c2)cc(N2CCCC2)c1
IC50: > 99.5 µM

O=C(Nc1ccc2c(c1)CNC2)c1ccc2[nH]ccc2c1
IC50: 1.67 µM and 2.5 µM

NCc1cccc(NC(=O)c2cc(Br)cnc2OCC2CC2)c1
IC50: > 99.5 µM

NCc1nc2cc(Cl)ccc2n1Cc1ccc(-c2nn[nH]n2)cc1
IC50: > 99.5 µM

CCn1c(=O)c(N2CC[C@H](c3cnccn3)C2)nc2ccccc21
IC50: > 99.5 µM

CN(C)Cc1cncc(NC(=O)[C@@H](NC(=O)OCc2ccccc2)c2ccc(OCc3ccccc3)cc2)c1
IC50: > 99.5 µM

NCc1cccc(NC(=O)[C@@H](NC(=O)OCc2ccccc2)c2cccnc2)c1
IC50: > 99.5 µM

O=C(NCCc1nc2ccccc2[nH]1)c1cc2ccc(F)cc2s1
IC50: > 99.5 µM

Cc1c(C(=O)Nc2ccc(CCN)cc2)cc(C2CC2)n1C
IC50: 92.6 µM

CCCC[C@H](NC(=O)OC(C)(C)C)C(=O)N[C@H](C(=O)NCc1ccc(C(N)=O)cc1)c1ccc(OCc2ccccc2)cc1
IC50: > 99.5 µM
